Holding throughout (format): in vivo
In series [1] the test system is Peripheral Sensory Neuropathy Induced by Bortezomib in Mice. Description: von Frey test, bortezomib-induced peripheral sensory neuropathy. The following applies: bortezomib 1 mg/kg once a week alone, compared with control group; three days after the administration. An excerpt: (§1) The mice in the three groups in the above (1) were put in a cage and a filament having a strength of 0.16 g was pressed on the plantar surface of the leg to measure the number of times (a score) of avoidance response.
(§2) In the present test, the mice were divided into three groups by a difference in test objects. As in Example 1, male Balb/c mice of 6 to 7 weeks old were used. The mice were divided into a total of three groups, a control group, a bortezomib administration group, and a bortezomib and Lentinus edodes mycelium extract administration group (bortezomib+Lentinus edodes mycelium extract administration group).
(§3) Bortezomib was administered to each mouse once a day at a dose of 1 mg/kg. Further, the Lentinus edodes mycelium extract was administered to each mouse once a day at a dose of 2 g/kg.
Further, the number of times of administration was set to once a week (on Day 0, Day 7, and Day 14) for bortezomib and daily (from Day 0 to Day 15) for the Lentinus edodes mycelium extract in both the von Frey test and the cold plate test below.
Evaluation was performed in the same manner as in the test with oxaliplatin in Example 1. Referring to FIG. 7, the horizontal axis indicates an elapsed time after administration (days) and the vertical axis indicates the avoidance response (scores). Open circles with a solid line represent the control group. Filled circles with a solid line represent the group in which only bortezomib was administered. Open squares with a dash line represent the group in which bortezomib and the Lentinus edodes mycelium extract were administered at the same time (bortezomib+Lentinus edodes mycelium extract administration group). When the difference with the control group was determined to be significant using a significance level of 5%, the data were marked by “*”.
(§4) In the present test, the mice were divided into six groups by a difference in test objects. As in Example 1, male Balb/c mice of 6 to 7 weeks old were used. […]

For series [2] the test system is unchanged. The series can be described thus: cold plate test, bortezomib-induced peripheral sensory neuropathy. Conditions: bortezomib 1 mg/kg once a day alone; Day 3. As to the method: (§5) The effect of the Lentinus edodes mycelium extract on the paresthesia to cold stimulation was tested by performing the cold plate test. The mice in the three groups in the above (1) were put on a cold plate set to 10° C. and a response time for avoidance (a latency) was measured. The shorter latency means that the mouse avoids the cold stimulation of the cold plate more.
as §2, §3
Evaluation was performed in the same manner as in the test with oxaliplatin in Example 1. Referring to FIG. 8, the horizontal axis indicates the elapsed time after administration (days) and the vertical axis indicates the avoidance response time (seconds). Open circles with a solid line represent the control group. Filled circles with a solid line represent the group in which only bortezomib was administered. Open squares with a dash line represent the group in which bortezomib and the Lentinus edodes mycelium extract were administered at the same time (bortezomib+Lentinus edodes mycelium extract administration groups). When the difference with the control group was determined to be significant using a significance level of 5%, the data were marked by “*”.
as §4

Series [3] deals with Peripheral Sensory Neuropathy Induced by Oxaliplatin in Mice. Description: von Frey test, oxaliplatin-induced peripheral sensory neuropathy. The following applies: oxaliplatin 6 mg/kg once a week alone, compared with control group; 0.16 g filament.
Description: (§6) Male Balb/c mice of 6 to 7 weeks old were used. The mice were divided into three groups: a control group, an oxaliplatin administration group, and an oxaliplatin and Lentinus edodes mycelium extract administration group (oxaliplatin+Lentinus edodes mycelium extract administration group). Oxaliplatin was administered to each mouse once a day at a dose of 6 mg/kg. Further, the Lentinus edodes mycelium extract was administered to each mouse once a day at a dose of 2 g/kg.
(§7) Further, the number of times of administration was set to once a week (on Day 0, Day 7, and Day 14) for oxaliplatin and daily (from Day 0 to Day 15) for the Lentinus edodes mycelium extract in both the von Frey test and the cold plate test below.
The higher number of times of avoidance means that the mouse avoids the stimulation by the filament more. […] When the difference with the control group was determined to be significant using a significance level of 5%, the data were marked by “*”.
For series [4] the test system is unchanged. Description: cold plate test, oxaliplatin-induced peripheral sensory neuropathy. The following applies: oxaliplatin 6 mg/kg once a week alone; Day 3; cold plate 10° C.
Description: as §6, §7
Oxaliplatin was administered to each mouse once a day at a dose of 6 mg/kg. Further, the Lentinus edodes mycelium extract was administered to each mouse once a day at a dose of 2 g/kg three days or six days after the administration of oxaliplatin. These groups are referred to as “Lentinus edodes mycelium extract 3-day delayed administration group” and “Lentinus edodes mycelium extract 6-day delayed administration group”, respectively.
Further, groups in which duloxetine was administered after the administration of oxaliplatin were prepared for comparison.
In series [5] the test system is Peripheral Sensory Neuropathy Induced by Paclitaxel in Mice. Description: von Frey test, paclitaxel-induced peripheral sensory neuropathy. The following applies: paclitaxel 6 mg/kg once a week alone, compared with control group; three days after the administration.
Text: as §1
Male Balb/c mice of 6 to 7 weeks old were used as in Example 1. The mice were divided into three groups: a control group, a paclitaxel administration group, and a paclitaxel and Lentinus edodes mycelium extract administration group (paclitaxel+Lentinus edodes mycelium extract administration group). Paclitaxel was administered to each mouse once a day at a dose of 6 mg/kg. Further, the Lentinus edodes mycelium extract was administered to each mouse once a day at a dose of 2 g/kg.
Further, the number of times of administration was set to once a week (on Day 0, Day 7, and Day 14) for paclitaxel and daily (from Day 0 to Day 15) for the Lentinus edodes mycelium extract in both the von Frey test and the cold plate test below.
Evaluation was performed in the same manner as in the test with oxaliplatin. Referring to FIG. 3, the horizontal axis indicates an elapsed time after administration (days) and the vertical axis indicates the avoidance response (scores). Open circles with a solid line represent the control group. Filled circles with a solid line represent the group in which only paclitaxel was administered. Open squares with a dash line represent the group in which paclitaxel and the Lentinus edodes mycelium extract were administered (paclitaxel+Lentinus edodes mycelium extract administration group). When the difference with the control group was determined to be significant using a significance level of 5%, the data were marked by “*”.
as §4

Series [6] has the same test system. The series can be described thus: cold plate test, paclitaxel-induced peripheral sensory neuropathy. The following applies: paclitaxel 6 mg/kg alone; Day 3. As to the method: as §5
In the present test, the mice were divided into four groups by a difference in test objects. As in Example 1, male Balb/c mice of 6 to 7 weeks old were used. The mice were divided into a total of four groups, a control group, a paclitaxel administration group, and two different paclitaxel and Lentinus edodes mycelium extract administration groups (paclitaxel+Lentinus edodes mycelium extract administration groups). […] Further, a group in which the Lentinus edodes mycelium extract was administered to each mouse once a day at a dose of 1 g/kg (hereinafter referred to as “1 g/kg administration group”) and a group in which the Lentinus edodes mycelium extract was administered to each mouse once a day at a dose of 2 g/kg (hereinafter referred to as “2 g/kg administration group”) were prepared.
Evaluation was performed in the same manner as in the test with oxaliplatin. Referring to FIG. 4, the horizontal axis indicates the elapsed time after administration (days) and the vertical axis indicates the avoidance response time (seconds). Open circles with a solid line represent the control group. Filled circles with a solid line represent the group in which only paclitaxel was administered. Open squares with a dash line and filled squares with a dash line represent the groups in which paclitaxel and the Lentinus edodes mycelium extract were administered at the same time (paclitaxel+Lentinus edodes mycelium extract administration groups). […] When the difference with the control group was determined to be significant using a significance level of 5%, the data were marked by “*”. […]

Turning to `CC(C)C[C@H](NC(=O)[C@H](Cc1ccccc1)NC(=O)c1cnccn1)B(O)O` [bortezomib], the “avoidance response (scores), von Frey test” value (shortened to “avoidance response (scores)”) in series [1] was “significantly increased”. In addition, the “latency to the cold stimulation (avoidance response time), cold plate test” value (shortened to “latency to the cold stimulation”) in series [2] is on record as “significantly reduced”.

`O=C1[O][Pt]2([NH][C@@H]3CCCC[C@H]3[NH]2)[O]C1=O` [oxaliplatin]: the “avoidance response (scores)” value in series [3] was “significantly increased”. The “latency to the cold stimulation” value in series [4] is listed as “significantly reduced”.

With `CC(=O)O[C@H]1C(=O)[C@@]2(C)[C@H]([C@H](OC(=O)c3ccccc3)[C@]3(O)C[C@H](OC(=O)[C@H](O)[C@@H](NC(=O)c4ccccc4)c4ccccc4)C(C)=C1C3(C)C)[C@]1(OC(C)=O)CO[C@@H]1C[C@@H]2O` [paclitaxel], the “avoidance response (scores)” value in series [5] is “significantly increased”. The “latency to the cold stimulation” value in series [6] is “significantly reduced”.

The values above are taken from patent US11793845B2, “Composition for ameliorating peripheral sensory neuropathy” (KINKI UNIVERSITY, priority 2016, dated 2023).
